Laboratory results published in EP0156508A1, “Antifungal aerosol solution” (ORTHO PHARMACEUTICAL CORPORATION, priority 1984, dated 1985).
Where two headings read alike, the source gives them in different places.

Assay: Solubility of miconazole nitrate in several common solvents
Type: physicochemical
Description: The imidazole ethers in general and the miconazoles in particular have very low solubilities in most solvents suitable for use in topical pharmaceutical compositions such as in the treatment of fungal skin infections. The solubility of miconazole nitrate, for example, in several common solvents has been determined to be as follows: […]

Clc1ccc(COC(Cn2ccnc2)c2ccc(Cl)cc2Cl)c(Cl)c1.O=[N+]([O-])O (stereo not drawn) [miconazole nitrate, 1-[2,4-dichloro-β-(2,4-dichlorobenzyloxy)-phenethyl] imidazole nitrate]
solubility (Solvent: 40% PG/water, read-out: solubility): 1300 µg/mL | solubility (Solvent: HCl 0.1 N, read-out: solubility): 500 µg/mL | solubility (Solvent: NaOH): Insoluble | solubility (Solvent: Water, read-out: solubility): 300 µg/mL | solubility (organic solvent or mixture, Solvent: 2-Propanol, read-out: solubility): 1300 µg/mL | solubility (organic solvent or mixture, Solvent: Acetone, read-out: solubility): 3400 µg/mL | solubility (organic solvent or mixture, Solvent: Benzene, read-out: solubility): 500 µg/mL | solubility (organic solvent or mixture, Solvent: Chloroform, read-out: solubility): 3100 µg/mL | solubility (organic solvent or mixture, Solvent: Ethanol, read-out: solubility): 7600 µg/mL | solubility (organic solvent or mixture, Solvent: Ethyl Acetate, read-out: solubility): 700 µg/mL | solubility (organic solvent or mixture, Solvent: Hexane, read-out: solubility): 300 µg/mL | solubility (organic solvent or mixture, Solvent: Methanol, read-out: solubility): 15000 µg/mL | solubility (organic solvent or mixture, Solvent: Methyl Isobutylketone, read-out: solubility): 400 µg/mL | solubility (organic solvent or mixture, Solvent: PEG 300, read-out: solubility): 1300 µg/mL | solubility (organic solvent or mixture, Solvent: Propylene Glycol, read-out: solubility): 1500 µg/mL | solubility (organic solvent or mixture, Solvent: Tetrahydrofuran, read-out: solubility): 2000 µg/mL
